One compound from patent publication US20250288587A1, “Methods of Treating Fibrosis” (Athira Pharma, Inc., priority 2022, published 2025) can be followed below.

Molecules are shown by their SMILES.

Test [1] has as its system pulmonary LPS-stimulated rats. Nature of the test: Cytokine expression in BALF supernatant (multiplex immunoassay), LPS-induced acute pulmonary inflammation. Conditions: 3 mg/kg IP 1 h before LPS. Type of test: in vivo.
In test [2] the test system is pulmonary LPS-stimulated rats. Nature of the test: Immune cell infiltration in BALF, LPS-induced acute pulmonary inflammation. Type of test: in vivo. Conditions: 3 mg/kg IP 1 h before LPS; BALF 4 h post LPS.

Take `C[C@@H]1C[C@H]2[C@@H]3CCC4=CC(=O)C=C[C@]4(C)[C@@]3(F)[C@@H](O)C[C@]2(C)[C@@]1(O)C(=O)CO` [Dex, Dexamethasone, reference compound]: in test [1], the “CCL2, significant change in cytokine expression in BALF supernatant” value is recorded as “+ (+ = Significant change in cytokine quantification, p < 0.05 by Student's T-test)”; the “CCL3, significant change in cytokine expression in BALF supernatant” value is “+ (+ = Significant change in cytokine quantification, p < 0.05 by Student's T-test)”; the “CCL5, significant change in cytokine expression in BALF supernatant” value is reported as “+ (+ = Significant change in cytokine quantification, p < 0.05 by Student's T-test)”; the “CCL11, significant change in cytokine expression in BALF supernatant” value is “+ (+ = Significant change in cytokine quantification, p < 0.05 by Student's T-test)”. In test [1], the “CX3CL1, significant change in cytokine expression in BALF supernatant” value is reported as “+ (+ = Significant change in cytokine quantification, p < 0.05 by Student's T-test)”; the “CXCL1, significant change in cytokine expression in BALF supernatant” value is recorded as “+ (+ = Significant change in cytokine quantification, p < 0.05 by Student's T-test)”; the “CXCL5, significant change in cytokine expression in BALF supernatant” value was “+ (+ = Significant change in cytokine quantification, p < 0.05 by Student's T-test)”; the “CXCL10, significant change in cytokine expression in BALF supernatant” value is given as “+ (+ = Significant change in cytokine quantification, p < 0.05 by Student's T-test)”. Also, in test [1], the “EGF, significant change in cytokine expression in BALF supernatant” value is reported as “+ (+ = Significant change in cytokine quantification, p < 0.05 by Student's T-test)”; the “IFN-γ, significant change in cytokine expression in BALF supernatant” value is “+ (+ = Significant change in cytokine quantification, p < 0.05 by Student's T-test)”; the “IL-1α, significant change in cytokine expression in BALF supernatant” value was “+ (+ = Significant change in cytokine quantification, p < 0.05 by Student's T-test)”; the “IL-1β, significant change in cytokine expression in BALF supernatant” value is on record as “+ (+ = Significant change in cytokine quantification, p < 0.05 by Student's T-test)”. Besides, in test [1], the “IL-5, significant change in cytokine expression in BALF supernatant” value is “+ (+ = Significant change in cytokine quantification, p < 0.05 by Student's T-test)”; the “IL-6, significant change in cytokine expression in BALF supernatant” value is “+ (+ = Significant change in cytokine quantification, p < 0.05 by Student's T-test)”; the “IL-10, significant change in cytokine expression in BALF supernatant” value was “+ (+ = Significant change in cytokine quantification, p < 0.05 by Student's T-test)”; the “IL-12p70, significant change in cytokine expression in BALF supernatant” value is recorded as “+ (+ = Significant change in cytokine quantification, p < 0.05 by Student's T-test)”. In test [1], the “IL-13, significant change in cytokine expression in BALF supernatant” value was “+ (+ = Significant change in cytokine quantification, p < 0.05 by Student's T-test)”; the “IL-17A, significant change in cytokine expression in BALF supernatant” value was “+ (+ = Significant change in cytokine quantification, p < 0.05 by Student's T-test)”; the “TNF-α, significant change in cytokine expression in BALF supernatant” value is given as “+ (+ = Significant change in cytokine quantification, p < 0.05 by Student's T-test)”. Moreover, in test [2], the “Neutrophils in BALF, reduction in cell count vs disease control” value was “+++ (+++ = >75% reduction in cell count vs disease control)” and the “Total Leukocytes in BALF, reduction in cell count vs disease control” value is listed as “+++ (+++ = >75% reduction in cell count vs disease control)”.
